# Laboratory results published in ChEMBL document CHEMBL3400114, “The design, synthesis and biological evaluation of conformationally restricted 4-substituted-2,6-dimethylfuro[2,3-d]pyrimidines as multi-targeted receptor tyrosine kinase and microtubule inhibitors as potential antitumor agents” (Bioorg Med Chem, 2015).
# Columns and labels:
# [1] = Growth inhibition of human Hs 578T cells after 48 hrs by sulforhodamine B assay; type: functional
# [2] = Growth inhibition of human […] cells after 48 hrs by sulforhodamine B assay; type: functional
# HL-60(TB) = assay: Growth inhibition of human HL-60(TB) cells after 48 hrs by sulforhodamine B assay; type: functional; details: HL-60, 48 h
# SF-268 = assay: Growth inhibition of human SF268 cells after 48 hrs by sulforhodamine B assay; type: functional; details: SF-268, 48 h
# CAKI-1 = assay: Growth inhibition of human Caki1 cells after 48 hrs by sulforhodamine B assay; type: functional; details: CAKI-1, 48 h
# NCI/ADR-RES = assay: Growth inhibition of human NCI/ADR-RES cells after 48 hrs by sulforhodamine B assay; type: functional
# [3] = Antiproliferative activity against human SKOV3-MDR1-M6/6 cells overexpressing wild type beta3 tubulin after 48 hrs by sulforhodamine B assay; type: functional, cell-based; details: SKOV3-MDR1-M6/6, 48 h
# 786-0 = assay: Growth inhibition of human 786-0 cells after 48 hrs by sulforhodamine B assay; type: functional; details: 786-0, 48 h
# [4] = Growth inhibition of human SF295 cells after 48 hrs by sulforhodamine B assay; type: functional; details: SF-295, 48 h
# MDA-MB-435 [5] = assay: Antiproliferative activity against human MDA-MB-435 cells after 48 hrs by sulforhodamine B assay; type: functional, cell-based; details: MDA-MB-435, 48 h
# SN12C = assay: Growth inhibition of human SN12C cells after 48 hrs by sulforhodamine B assay; type: functional
# [6] = Growth inhibition of human SF539 cells after 48 hrs by sulforhodamine B assay; type: functional; details: SF-539, 48 h
# [7] = Growth inhibition of human BT549 cells after 48 hrs by sulforhodamine B assay; type: functional; details: BT-549, 48 h
# SNB-75 = assay: Growth inhibition of human SNB75 cells after 48 hrs by sulforhodamine B assay; type: functional; details: SNB-75, 48 h
# U-251 = assay: Growth inhibition of human U251 cells after 48 hrs by sulforhodamine B assay; type: functional; details: U-251, 48 h
# SK-MEL-2 = assay: Growth inhibition of human SK-MEL-2 cells after 48 hrs by sulforhodamine B assay; type: functional; details: SK-MEL-2, 48 h
# NCI-H460 = assay: Growth inhibition of human NCI-H460 cells after 48 hrs by sulforhodamine B assay; type: functional; details: NCI-H460, 48 h
# [8] = Growth inhibition of human PC3 cells after 48 hrs by sulforhodamine B assay; type: functional; details: PC-3, 48 h
# A-431 = assay: Antiproliferative activity against human A431 cells after 48 hrs by sulforhodamine B assay; type: functional, cell-based; details: A-431, 48 h
# NCI-H23 = assay: Growth inhibition of human NCI-H23 cells after 48 hrs by sulforhodamine B assay; type: functional; details: NCI-H23, 48 h
# DU-145 = assay: Growth inhibition of human DU145 cells after 48 hrs by sulforhodamine B assay; type: functional; details: DU-145, 48 h
# SR = assay: Growth inhibition of human SR cells after 48 hrs by sulforhodamine B assay; type: functional
# IGROV-1 = assay: Growth inhibition of human IGROV1 cells after 48 hrs by sulforhodamine B assay; type: functional; details: IGROV-1, 48 h
# SK-MEL-5 = assay: Growth inhibition of human SK-MEL-5 cells after 48 hrs by sulforhodamine B assay; type: functional; details: SK-MEL-5, 48 h
# SK-OV-3 [9] = assay: Growth inhibition of human SKOV3 cells after 48 hrs by sulforhodamine B assay; type: functional; details: SK-OV-3, 48 h
# [10] = Growth inhibition of human HOP92 cells after 48 hrs by sulforhodamine B assay; type: functional; details: HOP-92, 48 h
# [11] = Growth inhibition of human LOXIMVI cells after 48 hrs by sulforhodamine B assay; type: functional; details: LOX IMVI
# [12] = Growth inhibition of human UACC62 cells after 48 hrs by sulforhodamine B assay; type: functional; details: UACC-62, 48 h
# HeLa [13] = assay: Resistance ratio of IC50 for human HeLa cells overexpressing wild type beta3 tubulin to IC50 for human HeLa cells; type: functional
# NCI-H522 = assay: Growth inhibition of human NCI-H522 cells after 48 hrs by sulforhodamine B assay; type: functional; details: NCI-H522, 48 h
# [14] = Induction of microtubule depolymerization in rat A10 cells after 18 hrs by indirect immunofluorescence assay; type: cell-based
# SNB-19 = assay: Growth inhibition of human SNB19 cells after 48 hrs by sulforhodamine B assay; type: functional; details: SNB-19, 48 h
# HT-29 = assay: Growth inhibition of human HT-29 cells after 48 hrs by sulforhodamine B assay; type: functional; details: HT-29, 48 h
# K562 = assay: Growth inhibition of human K562 cells after 48 hrs by sulforhodamine B assay; type: functional; details: K562, 48 h
# [15] = Growth inhibition of human OVCAR5 cells after 48 hrs by sulforhodamine B assay; type: functional; details: OVCAR-5, 48 h
# [16] = Growth inhibition of human EKVX cells after 48 hrs by sulforhodamine B assay; type: functional
# [17] = Growth inhibition of human HCT116 cells after 48 hrs by sulforhodamine B assay; type: functional; details: HCT-116, 48 h
# [18] = Antiproliferative activity against human SKOV3 cells overexpressing wild type beta3 tubulin after 48 hrs by sulforhodamine B assay; type: functional, cell-based; details: SK-OV-3, 48 h
# [19] = Growth inhibition of human HCC2998 cells after 48 hrs by sulforhodamine B assay; type: functional; details: HCC 2998, 48 h
# CCRF-CEM = assay: Growth inhibition of human CCRF-CEM cells after 48 hrs by sulforhodamine B assay; type: functional
# ACHN = assay: Growth inhibition of human ACHN cells after 48 hrs by sulforhodamine B assay; type: functional
# [20] = Antiangiogenic activity in VEGF-165 and bFGF-stimulated chicken embryo chorioallantoic membrane assessed as inhibition of blood vessel formation after 40 hrs by microscopy; type: functional, tissue-based, Gallus gallus
# MDA-MB-231 = assay: Growth inhibition of human MDA-MB-231 cells after 48 hrs by sulforhodamine B assay; type: functional; details: MDA-MB-231, 48 h
# SK-OV-3 [21] = assay: Resistance ratio of IC50 for human SKOV3-MDR1-M6/6 cells to IC50 for human SKOV3 cells; type: functional
# MCF7 = assay: Growth inhibition of human MCF7 cells after 48 hrs by sulforhodamine B assay; type: functional; details: MCF7, 48 h
# KM12 = assay: Growth inhibition of human KM12 cells after 48 hrs by sulforhodamine B assay; type: functional; details: KM12, 48 h
# M14 = assay: Growth inhibition of human M14 cells after 48 hrs by sulforhodamine B assay; type: functional; details: M14, 48 h
# [22] = Growth inhibition of human RXF393 cells after 48 hrs by sulforhodamine B assay; type: functional; details: RXF 393, 48 h
# HeLa [23] = assay: Antiproliferative activity against human HeLa cells overexpressing wild type beta3 tubulin after 48 hrs by sulforhodamine B assay; type: functional, cell-based
# MDA-MB-468 = assay: Growth inhibition of human MDA-MB-468 cells after 48 hrs by sulforhodamine B assay; type: functional; details: MDA-MB-468, 48 h
# [24] = Growth inhibition of human UO31 cells after 48 hrs by sulforhodamine B assay; type: functional; details: UO-31, 48 h
# TK-10 = assay: Growth inhibition of human TK10 cells after 48 hrs by sulforhodamine B assay; type: functional; details: TK-10, 48 h
# [25] = Growth inhibition of human COLO205 cells after 48 hrs by sulforhodamine B assay; type: functional; details: COLO 205, 48 h
# [26] = Growth inhibition of human OVCAR8 cells after 48 hrs by sulforhodamine B assay; type: functional; details: OVCAR-8, 48 h
# [27] = Growth inhibition of human OVCAR4 cells after 48 hrs by sulforhodamine B assay; type: functional; details: OVCAR-4, 48 h
# [28] = Growth inhibition of human MOLT4 cells after 48 hrs by sulforhodamine B assay; type: functional; details: MOLT-4, 48 h
# [29] = Ratio of EC50 for microtubule depolymerization in rat A10 cells to IC50 for human MDA-MB-435 cells
# [30] = Growth inhibition of human HCT15 cells after 48 hrs by sulforhodamine B assay; type: functional; details: HCT-15, 48 h
# HOP-62 = assay: Growth inhibition of human HOP62 cells after 48 hrs by sulforhodamine B assay; type: functional; details: HOP-62, 48 h
# SW-620 = assay: Growth inhibition of human SW620 cells after 48 hrs by sulforhodamine B assay; type: functional; details: SW-620, 48 h
# MDA-MB-435 [31] = assay: Growth inhibition of human MDA-MB-435 cells after 48 hrs by sulforhodamine B assay; type: functional; details: MDA-MB-435, 48 h
# [32] = Growth inhibition of human OVCAR3 cells after 48 hrs by sulforhodamine B assay; type: functional; details: OVCAR-3, 48 h
# NCI-H226 = assay: Growth inhibition of human NCI-H226 cells after 48 hrs by sulforhodamine B assay; type: functional; details: NCI-H226, 48 h
# Tubulin = Tubulin (Bos taurus, UniProt Q6B856+Q862L2+Q862F3); assay: Inhibition of bovine brain tubulin assembly
# [33] = biological target: Epidermal growth factor receptor (Homo sapiens, UniProt P00533); type: cell-based, A-431
# [34] = biological target: Platelet-derived growth factor receptor beta (Homo sapiens, UniProt P09619); assay: Inhibition of PDGFR-beta in human U251 cells compound pretreated for 60 min before PDGF-BB stimulation for 10 mins by phosphotyrosine ELISA cytoblot method; type: cell-based, U-251
# [35] = biological target: Vascular endothelial growth factor receptor 2 (Homo sapiens, UniProt P35968); type: cell-based, U-251
# Vascular endothelial growth factor receptor 2, sequence (P35968 whole entry): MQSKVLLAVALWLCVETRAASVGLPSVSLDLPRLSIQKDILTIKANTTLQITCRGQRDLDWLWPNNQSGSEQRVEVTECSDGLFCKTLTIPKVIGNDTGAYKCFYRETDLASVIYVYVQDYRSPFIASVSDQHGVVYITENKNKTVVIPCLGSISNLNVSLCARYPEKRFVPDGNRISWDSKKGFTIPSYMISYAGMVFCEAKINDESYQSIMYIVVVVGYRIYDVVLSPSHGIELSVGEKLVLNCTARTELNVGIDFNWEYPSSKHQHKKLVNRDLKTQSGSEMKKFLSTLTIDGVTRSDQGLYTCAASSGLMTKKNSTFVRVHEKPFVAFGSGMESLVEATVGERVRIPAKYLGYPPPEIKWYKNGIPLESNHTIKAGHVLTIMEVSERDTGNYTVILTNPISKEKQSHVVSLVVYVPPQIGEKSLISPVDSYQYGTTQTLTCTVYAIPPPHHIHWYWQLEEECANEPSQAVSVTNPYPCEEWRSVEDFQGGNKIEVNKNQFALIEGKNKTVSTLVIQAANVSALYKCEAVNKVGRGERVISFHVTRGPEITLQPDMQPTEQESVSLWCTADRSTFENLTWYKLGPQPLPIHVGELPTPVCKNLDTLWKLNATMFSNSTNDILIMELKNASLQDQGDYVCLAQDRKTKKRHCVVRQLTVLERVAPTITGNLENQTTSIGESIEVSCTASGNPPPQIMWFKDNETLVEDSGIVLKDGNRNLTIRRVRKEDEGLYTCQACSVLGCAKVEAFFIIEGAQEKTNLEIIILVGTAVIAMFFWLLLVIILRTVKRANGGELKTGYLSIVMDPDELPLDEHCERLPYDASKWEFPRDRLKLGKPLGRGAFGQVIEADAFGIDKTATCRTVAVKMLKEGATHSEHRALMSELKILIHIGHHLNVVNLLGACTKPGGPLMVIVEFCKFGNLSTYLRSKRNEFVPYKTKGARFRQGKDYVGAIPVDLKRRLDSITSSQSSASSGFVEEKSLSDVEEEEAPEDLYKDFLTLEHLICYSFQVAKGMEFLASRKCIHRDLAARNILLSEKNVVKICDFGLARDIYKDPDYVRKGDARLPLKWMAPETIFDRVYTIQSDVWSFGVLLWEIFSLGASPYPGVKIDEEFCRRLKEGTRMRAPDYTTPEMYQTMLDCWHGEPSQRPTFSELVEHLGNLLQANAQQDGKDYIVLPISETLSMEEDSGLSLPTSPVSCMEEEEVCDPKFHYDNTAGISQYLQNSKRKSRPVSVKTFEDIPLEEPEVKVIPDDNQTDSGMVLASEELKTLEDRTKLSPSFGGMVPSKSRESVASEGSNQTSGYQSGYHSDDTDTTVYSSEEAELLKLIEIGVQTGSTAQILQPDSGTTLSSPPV
# Platelet-derived growth factor receptor beta, sequence (P09619 whole entry): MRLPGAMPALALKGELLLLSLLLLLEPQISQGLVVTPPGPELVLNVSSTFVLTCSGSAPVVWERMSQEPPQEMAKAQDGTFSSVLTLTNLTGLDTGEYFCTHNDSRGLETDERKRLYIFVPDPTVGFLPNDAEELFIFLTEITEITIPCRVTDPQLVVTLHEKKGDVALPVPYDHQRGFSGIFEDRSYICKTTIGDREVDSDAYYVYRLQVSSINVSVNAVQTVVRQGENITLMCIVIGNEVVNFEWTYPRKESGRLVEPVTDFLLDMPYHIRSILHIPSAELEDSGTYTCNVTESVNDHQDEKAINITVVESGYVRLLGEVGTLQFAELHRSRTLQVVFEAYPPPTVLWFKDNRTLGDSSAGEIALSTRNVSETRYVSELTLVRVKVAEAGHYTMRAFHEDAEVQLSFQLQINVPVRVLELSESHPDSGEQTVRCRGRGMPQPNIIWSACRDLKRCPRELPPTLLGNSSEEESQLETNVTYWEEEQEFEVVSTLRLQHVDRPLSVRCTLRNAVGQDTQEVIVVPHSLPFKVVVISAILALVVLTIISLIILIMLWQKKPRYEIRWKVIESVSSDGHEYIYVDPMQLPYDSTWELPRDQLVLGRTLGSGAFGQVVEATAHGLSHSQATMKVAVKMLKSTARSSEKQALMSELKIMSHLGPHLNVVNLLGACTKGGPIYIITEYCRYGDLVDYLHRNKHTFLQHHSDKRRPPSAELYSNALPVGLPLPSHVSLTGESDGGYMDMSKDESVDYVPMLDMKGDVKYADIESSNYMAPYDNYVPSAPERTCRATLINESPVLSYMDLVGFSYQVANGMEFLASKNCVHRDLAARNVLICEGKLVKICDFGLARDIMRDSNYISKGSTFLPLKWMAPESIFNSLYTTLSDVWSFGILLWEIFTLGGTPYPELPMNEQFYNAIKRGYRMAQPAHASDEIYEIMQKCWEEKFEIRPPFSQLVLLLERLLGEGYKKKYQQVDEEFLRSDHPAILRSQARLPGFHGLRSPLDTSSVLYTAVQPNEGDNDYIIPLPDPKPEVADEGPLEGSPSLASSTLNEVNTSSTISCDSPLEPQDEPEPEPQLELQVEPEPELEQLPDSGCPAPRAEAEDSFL
# Epidermal growth factor receptor, sequence (P00533 whole entry): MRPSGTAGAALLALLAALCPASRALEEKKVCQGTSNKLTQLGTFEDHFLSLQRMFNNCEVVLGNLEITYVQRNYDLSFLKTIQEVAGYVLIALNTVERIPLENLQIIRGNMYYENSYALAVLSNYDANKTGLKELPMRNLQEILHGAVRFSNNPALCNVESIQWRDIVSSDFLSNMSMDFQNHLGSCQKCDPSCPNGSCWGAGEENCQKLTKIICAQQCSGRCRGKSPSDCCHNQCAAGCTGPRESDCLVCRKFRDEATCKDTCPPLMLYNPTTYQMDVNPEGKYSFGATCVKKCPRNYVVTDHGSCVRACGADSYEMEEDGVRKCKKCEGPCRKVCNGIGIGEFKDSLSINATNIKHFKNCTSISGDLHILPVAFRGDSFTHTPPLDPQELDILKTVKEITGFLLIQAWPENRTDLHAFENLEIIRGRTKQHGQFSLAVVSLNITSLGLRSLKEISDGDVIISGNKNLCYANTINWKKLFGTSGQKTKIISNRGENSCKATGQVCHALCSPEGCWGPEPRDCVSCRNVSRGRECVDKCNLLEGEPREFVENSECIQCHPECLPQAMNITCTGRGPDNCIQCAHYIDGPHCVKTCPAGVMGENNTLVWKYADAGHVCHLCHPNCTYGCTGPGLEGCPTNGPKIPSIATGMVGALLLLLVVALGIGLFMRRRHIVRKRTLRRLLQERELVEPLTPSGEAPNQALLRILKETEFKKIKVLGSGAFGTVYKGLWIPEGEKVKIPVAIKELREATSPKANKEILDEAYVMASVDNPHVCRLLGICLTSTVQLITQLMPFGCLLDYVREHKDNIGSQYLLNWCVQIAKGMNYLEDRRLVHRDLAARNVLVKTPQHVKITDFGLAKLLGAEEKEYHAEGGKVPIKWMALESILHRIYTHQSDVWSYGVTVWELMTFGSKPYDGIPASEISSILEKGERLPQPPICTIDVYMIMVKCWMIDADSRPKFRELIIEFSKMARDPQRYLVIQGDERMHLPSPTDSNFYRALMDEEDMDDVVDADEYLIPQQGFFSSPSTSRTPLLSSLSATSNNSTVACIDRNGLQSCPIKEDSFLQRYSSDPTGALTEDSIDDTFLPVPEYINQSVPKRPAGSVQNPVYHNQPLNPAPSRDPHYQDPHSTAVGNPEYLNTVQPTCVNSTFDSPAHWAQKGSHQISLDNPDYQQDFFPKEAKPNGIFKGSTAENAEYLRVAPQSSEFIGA
structure (smiles),measurement,setting,value
Cc1nc(N(C)c2ccc3occc3c2)c2cc(C)oc2n1,GI50,[1],51.7 nM
same,GI50,[2],389 nM
same,GI50,HL-60(TB),41.2 nM
same,GI50,SF-268,527 nM
same,GI50,CAKI-1,57.9 nM
same,GI50,NCI/ADR-RES,37.6 nM
same,IC50,[3],509 nM
same,GI50,786-0,1040 nM
same,GI50,[4],41.7 nM
same,IC50,MDA-MB-435 [5],133 nM
same,GI50,SN12C,611 nM
same,GI50,[6],60.9 nM
same,GI50,[7],432 nM
same,GI50,SNB-75,103 nM
same,GI50,U-251,84 nM
same,GI50,SK-MEL-2,82.4 nM
same,GI50,NCI-H460,138 nM
same,GI50,[8],183 nM
same,IC50,A-431,73.2 nM
same,GI50,NCI-H23,206 nM
same,GI50,DU-145,198 nM
same,GI50,SR,62.4 nM
same,GI50,IGROV-1,142 nM
same,GI50,SK-MEL-5,50.4 nM
same,GI50,SK-OV-3 [9],98 nM
same,GI50,[10],226 nM
same,GI50,[11],162 nM
same,GI50,[12],57.1 nM
same,Ratio IC50,HeLa [13],0.8
same,GI50,NCI-H522,29.9 nM
same,EC50,[14],3790 nM
same,GI50,SNB-19,93.6 nM
same,GI50,HT-29,51.9 nM
same,GI50,K562,40.4 nM
same,GI50,[15],531 nM
same,GI50,[16],396 nM
same,GI50,[17],77.1 nM
same,IC50,[18],425 nM
same,GI50,[19],185 nM
same,GI50,CCRF-CEM,121 nM
same,GI50,ACHN,265 nM
same,IC50,[20],15200 nM
same,GI50,MDA-MB-231,223 nM
same,Ratio IC50,SK-OV-3 [21],1.2
same,GI50,MCF7,43.8 nM
same,GI50,KM12,58.4 nM
same,GI50,M14,47.3 nM
same,GI50,[22],57.2 nM
same,IC50,HeLa [23],243 nM
same,GI50,MDA-MB-468,31.5 nM
same,GI50,[24],278 nM
same,GI50,TK-10,382 nM
same,GI50,[25],139 nM
same,GI50,[26],330 nM
same,GI50,[27],553 nM
same,GI50,[28],211 nM
same,Ratio,[29],28
same,GI50,[30],51.9 nM
same,GI50,HOP-62,75.2 nM
same,GI50,SW-620,58.8 nM
same,GI50,MDA-MB-435 [31],21.1 nM
same,GI50,[32],30 nM
same,GI50,NCI-H226,217 nM
COc1ccc(N(C)c2nc(C)nc3oc(C)cc23)cc1,IC50,Tubulin,2400 nM
same,EC50,[14],103 nM
CCOc1ccc(N(C)c2nc(C)nc3oc(C)cc23)cc1,IC50,[3],30.8 nM
same,IC50,A-431,92.9 nM
same,IC50,[33],> 500 nM
same,IC50,[34],132 nM
same,IC50,[35],121 nM
